Laboratory results published in paper PMC12669672, “Structural insights into selective and dual antagonism of EP2 and EP4 prostaglandin receptors” (The EMBO Journal, 2025).
Values joined by “and” are separate entries in the source; they are usually repeats but may differ in a detail not shown here. Equal values may be shown once. Read-outs that look alike come from different tables or passages of the source.

Legend:
Assay type in all cases: cell-based
EP4 WT = biological target: T1, EP4 WT (Homo sapiens, UniProt P35408); experiment: GloSensor cAMP assay, antagonism of PGE2-induced cAMP; details: for remaining activity at 100 µM / remaining activity at […] / remaining activity at 0.1585 µM / remaining activity at 0.03236 µM / remaining activity at 0.006457 µM / remaining activity at 0.001288 µM: 1 h
T1 construct: The full-length EP2 or EP4 was cloned into the pcDNA3.1 vector; FLAG (N); expressed in transfected cells; host or cells: AD293 cells
T1 sequence (P35408 whole entry): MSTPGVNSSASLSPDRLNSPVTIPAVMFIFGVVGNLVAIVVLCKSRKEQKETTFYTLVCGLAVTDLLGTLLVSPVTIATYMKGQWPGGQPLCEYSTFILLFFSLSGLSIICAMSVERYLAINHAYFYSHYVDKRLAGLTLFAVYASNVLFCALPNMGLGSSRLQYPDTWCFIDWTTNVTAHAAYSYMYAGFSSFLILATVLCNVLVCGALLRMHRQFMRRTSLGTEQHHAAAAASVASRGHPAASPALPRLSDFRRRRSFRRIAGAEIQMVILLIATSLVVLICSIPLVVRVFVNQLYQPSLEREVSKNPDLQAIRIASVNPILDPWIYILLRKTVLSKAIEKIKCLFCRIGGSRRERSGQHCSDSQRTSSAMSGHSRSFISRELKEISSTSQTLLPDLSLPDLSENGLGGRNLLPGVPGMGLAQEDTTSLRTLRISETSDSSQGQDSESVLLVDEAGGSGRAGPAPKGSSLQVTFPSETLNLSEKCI
Experimental: (§1) The full-length EP2 or EP4 was cloned into the pcDNA3.1 vector (Invitrogen), incorporating an N-terminal FLAG tag. AD293 cells were seeded in six-well plates containing DMEM supplemented with 10% dialyzed FBS 1 day prior to transfection. Following overnight growth, cells were transfected with a 1:1 ratio of receptor construct and GloSensor22F cAMP biosensor (Promega) plasmids.
(§2) Twenty-four hours post-transfection, the cells were transferred to CO2-independent media containing 2% GloSensor cAMP Reagent (Promega) and distributed into 384-well assay plates at a density of 4000 cells per well in 10 μL. […] The plates were then incubated at 37 °C for an additional hour before luminescence measurements were taken using an EnVision plate reader.
(§3) Data analysis was performed using GraphPad Prism software v8.0.1. A nonlinear regression analysis, employing a sigmoidal dose–response model, was conducted to determine the Emax values and half-maximum inhibitory concentrations (IC50) for each compound tested.

[1] = biological target: T2, constitutively active EP2 M116A (Homo sapiens, UniProt P43116, M116A); experiment: GloSensor cAMP assay, inhibition of constitutive activity
T2 construct: The full-length EP2 or EP4 was cloned into the pcDNA3.1 vector; FLAG (N); expressed in transfected cells; host or cells: AD293 cells
T2 sequence (P43116 whole entry M116A): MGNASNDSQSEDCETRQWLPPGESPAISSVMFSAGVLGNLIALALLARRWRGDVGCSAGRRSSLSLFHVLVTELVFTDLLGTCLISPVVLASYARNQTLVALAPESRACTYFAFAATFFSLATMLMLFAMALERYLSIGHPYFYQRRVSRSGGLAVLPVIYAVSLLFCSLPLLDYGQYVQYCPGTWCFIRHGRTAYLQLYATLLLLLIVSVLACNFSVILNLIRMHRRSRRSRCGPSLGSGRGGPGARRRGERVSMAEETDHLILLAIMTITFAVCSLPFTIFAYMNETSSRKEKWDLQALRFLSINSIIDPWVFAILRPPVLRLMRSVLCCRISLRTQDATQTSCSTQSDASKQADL
Experimental: as §1, §2, §3

[2] = biological target: T3, constitutively active EP2 S305A (Homo sapiens, UniProt P43116, S305A); experiment: as above
T3 construct: The full-length EP2 or EP4 was cloned into the pcDNA3.1 vector; FLAG (N); expressed in transfected cells; host or cells: AD293 cells
T3 sequence (P43116 whole entry S305A): as the sequence (P43116 whole entry M116A) above, with A116M, S305A counted along it
Experimental: as §1, §2, §3

[3] = biological target: T4, constitutively active EP2 S308A (Homo sapiens, UniProt P43116, S308A); experiment: as above
T4 construct: The full-length EP2 or EP4 was cloned into the pcDNA3.1 vector; FLAG (N); expressed in transfected cells; host or cells: AD293 cells
T4 sequence (P43116 whole entry S308A): as the sequence (P43116 whole entry M116A) above, with A116M, S308A counted along it
Experimental: as §1, §2, §3

[4] = biological target: T5, constitutively active EP2 S86A (Homo sapiens, UniProt P43116, S86A); experiment: as above
T5 construct: The full-length EP2 or EP4 was cloned into the pcDNA3.1 vector; FLAG (N); expressed in transfected cells; host or cells: AD293 cells
T5 sequence (P43116 whole entry S86A): as the sequence (P43116 whole entry M116A) above, with S86A, A116M counted along it
Experimental: as §1, §2, §3

[5] = biological target: T6, constitutively active EP2 T82A (Homo sapiens, UniProt P43116, T82A); experiment: as above
T6 construct: The full-length EP2 or EP4 was cloned into the pcDNA3.1 vector; FLAG (N); expressed in transfected cells; host or cells: AD293 cells
T6 sequence (P43116 whole entry T82A): as the sequence (P43116 whole entry M116A) above, with T82A, A116M counted along it
Experimental: as §1, §2, §3

[6] = biological target: T7, constitutively active EP2 W186A (Homo sapiens, UniProt P43116, W186A); experiment: as above
T7 construct: The full-length EP2 or EP4 was cloned into the pcDNA3.1 vector; FLAG (N); expressed in transfected cells; host or cells: AD293 cells
T7 sequence (P43116 whole entry W186A): as the sequence (P43116 whole entry M116A) above, with A116M, W186A counted along it
Experimental: as §1, §2, §3

[7] = biological target: T8, constitutively active EP2 WT (Homo sapiens, UniProt P43116); experiment: as above
T8 construct: The full-length EP2 or EP4 was cloned into the pcDNA3.1 vector; FLAG (N); expressed in transfected cells; host or cells: AD293 cells
T8 sequence (P43116 whole entry): as the sequence (P43116 whole entry M116A) above, with A116M counted along it
Experimental: as §1, §2, §3

[8] = biological target: T9, constitutively active EP4 S319A (Homo sapiens, UniProt P35408, S319A); experiment: as above
T9 construct: The full-length EP2 or EP4 was cloned into the pcDNA3.1 vector (Invitrogen), incorporating an N-terminal FLAG tag; expressed in transfected cells; host or cells: AD293
T9 sequence (P35408 whole entry S319A): as the sequence (P35408 whole entry) above, with S319A counted along it
Experimental: as §1, §2, §3

[9] = no PGE2, pIC50 mutant - pIC50 WT, mean

remaining activity at 100 µM (EP4 WT; TG6-129 log([M]) -4.00, read-out: % cAMP activity (normalized to WT)): 15.1% | remaining activity at […] (EP4 WT; TG6-129 log([M]) -4.70, read-out: % cAMP activity (normalized to WT)): 25.9% | remaining activity at […] (EP4 WT; TG6-129 log([M]) -5.40, read-out: % cAMP activity (normalized to WT)): 86.4% | remaining activity at […] (EP4 WT; TG6-129 log([M]) -6.10, read-out: % cAMP activity (normalized to WT)): 94.7% | remaining activity at 0.1585 µM (EP4 WT; TG6-129 log([M]) -6.80, read-out: % cAMP activity (normalized to WT)): 90.5% | remaining activity at 0.03236 µM (EP4 WT; TG6-129 log([M]) -7.49, read-out: % cAMP activity (normalized to WT)): 87.9% | remaining activity at 0.006457 µM (EP4 WT; TG6-129 log([M]) -8.19, read-out: % cAMP activity (normalized to WT)): 104% | remaining activity at 0.001288 µM (EP4 WT; TG6-129 log([M]) -8.89, read-out: % cAMP activity (normalized to WT)): 109% | remaining activity at 100 µM (EP4 WT; read-out: % cAMP activity EP4 (normalized to Grapiprant), ligand log([M]) -4.00, single experiments 1st-3rd, Fig. S1A): 15.1% | remaining activity at […] (EP4 WT; read-out: % cAMP activity EP4 (normalized to Grapiprant), ligand log([M]) -4.70, single experiments 1st-3rd, Fig. S1A): 25.9% | remaining activity at […] (EP4 WT; read-out: % cAMP activity EP4 (normalized to Grapiprant), ligand log([M]) -5.40, single experiments 1st-3rd, Fig. S1A): 86.4% | remaining activity at […] (EP4 WT; read-out: % cAMP activity EP4 (normalized to Grapiprant), ligand log([M]) -6.10, single experiments 1st-3rd, Fig. S1A): 94.7% | remaining activity at 0.1585 µM (EP4 WT; read-out: % cAMP activity EP4 (normalized to Grapiprant), ligand log([M]) -6.80, single experiments 1st-3rd, Fig. S1A): 90.5% | remaining activity at 0.03236 µM (EP4 WT; read-out: % cAMP activity EP4 (normalized to Grapiprant), ligand log([M]) -7.49, single experiments 1st-3rd, Fig. S1A): 87.9% | remaining activity at 0.006457 µM (EP4 WT; read-out: % cAMP activity EP4 (normalized to Grapiprant), ligand log([M]) -8.19, single experiments 1st-3rd, Fig. S1A): 104% | remaining activity at 0.001288 µM (EP4 WT; read-out: % cAMP activity EP4 (normalized to Grapiprant), ligand log([M]) -8.89, single experiments 1st-3rd, Fig. S1A): 109% | cAMP activity (∆pIC50 from EP4 WT) (EP4 WT; TG6-129, WT, single experiments 1st-3rd): 0.138 and 0.074 and -0.140 | IC50 [1]: 490 nM | remaining activity at 1 µM ([1]; 1 h, TG6-129 log([M]) -6, EP2-M116A, read-out: % cAMP activity (normalized to WT)): 94.8% | TG6-129 cAMP activity (∆pIC50 from EP2 WT), Mean ([1]; M116A, Mean): -0.618 | TG6-129 cAMP activity (∆pIC50 from EP2 WT) ([1]; M116A, single experiments 1st-3rd): -0.597 and -0.614 and -0.642 | ΔpIC50 [1, 9]: -0.62 ± 0.01 | IC50 [2]: 50.1 nM | TG6-129 cAMP activity (∆pIC50 from EP2 WT), Mean ([2]; S305A, Mean): 0.384 | ΔpIC50 [2, 9]: 0.38 ± 0.10 | IC50 [3]: 58.9 nM | remaining activity at 0.0001 µM ([3]; 1 h, TG6-129 log([M]) -10, EP2-S308A, read-out: % cAMP activity (normalized to WT)): 87.7% | TG6-129 cAMP activity (∆pIC50 from EP2 WT), Mean ([3]; S308A, Mean): 0.246 | IC50 [4]: 603 nM | TG6-129 cAMP activity (∆pIC50 from EP2 WT), Mean ([4]; S86A, Mean): -0.670 | TG6-129 cAMP activity (∆pIC50 from EP2 WT) ([4]; S86A, single experiments 1st-3rd): -0.744 and -0.540 and -0.726 | ΔpIC50 [4, 9]: -0.67 ± 0.07 | IC50 [5]: 219 nM | TG6-129 cAMP activity (∆pIC50 from EP2 WT), Mean ([5]; T82A, Mean): -0.316 | TG6-129 cAMP activity (∆pIC50 from EP2 WT) ([5]; T82A, single experiments 1st-3rd): -0.298 and -0.466 and -0.185 | IC50 [6]: 3630 nM | remaining activity at 0.1 µM ([6]; 1 h, TG6-129 log([M]) -7, EP2-W186A, read-out: % cAMP activity (normalized to WT)): 91.6% | remaining activity at 0.0001 µM ([6]; 1 h, TG6-129 log([M]) -10, EP2-W186A, read-out: % cAMP activity (normalized to WT)): 92.4% | remaining activity at 10 pM ([6]; 1 h, TG6-129 log([M]) -11, EP2-W186A, read-out: % cAMP activity (normalized to WT)): 99.9% | remaining activity at 1 pM ([6]; 1 h, TG6-129 log([M]) -12, EP2-W186A, read-out: % cAMP activity (normalized to WT)): 97.8% | TG6-129 cAMP activity (∆pIC50 from EP2 WT), Mean ([6]; W186A, Mean): -1.465 | ΔpIC50 [6, 9]: -1.47 ± 0.16 | IC50 [7]: 87.1 nM | remaining activity at 10 µM ([7]; 1 h, TG6-129 log([M]) -5, EP2-WT, read-out: % cAMP activity (normalized to WT)): 3.2% | remaining activity at 1 µM ([7]; 1 h, TG6-129 log([M]) -6, EP2-WT, read-out: % cAMP activity (normalized to WT)): 6.32% | remaining activity at 0.1 µM ([7]; 1 h, TG6-129 log([M]) -7, EP2-WT, read-out: % cAMP activity (normalized to WT)): 34.4% | remaining activity at 0.001 µM ([7]; 1 h, TG6-129 log([M]) -9, EP2-WT, read-out: % cAMP activity (normalized to WT)): 94.3% | remaining activity at 0.0001 µM ([7]; 1 h, TG6-129 log([M]) -10, EP2-WT, read-out: % cAMP activity (normalized to WT)): 104% | remaining activity at 10 pM ([7]; 1 h, TG6-129 log([M]) -11, EP2-WT, read-out: % cAMP activity (normalized to WT)): 100% | remaining activity at 1 pM ([7]; 1 h, TG6-129 log([M]) -12, EP2-WT, read-out: % cAMP activity (normalized to WT)): 88.6% | TG6-129 cAMP activity (∆pIC50 from EP2 WT) ([7]; WT, single experiments 1st-3rd): -0.062 and 0.053 and 0.096 | IC50 [8]: 20000 nM
SMILES: CCc1nnc(NS(=O)(=O)c2ccc(NC(=S)NC(=O)/C=C/c3ccc(F)cc3)cc2)s1 [TG6-129]
